In PMC8777805, “Interactions of Nereistoxin and Its Analogs with Vertebrate Nicotinic Acetylcholine Receptors and Molluscan ACh Binding Proteins” (Marine Drugs, 2022):
Like-named read-outs stand apart in the source and are kept apart here.

Columns and labels:
rat brain α4β2 nAChRs = target: T1, rat brain α4β2 nAChRs (Rattus norvegicus, UniProt P09483+P12390); assay: [3H]-cytisine displacement, rat brain membranes; type: binding
T1 construct: from tissue; host or cells: whole rat brain membranes
Method: Rat brain membranes (100 μg of protein) expressing […] α4β2 nAChRs were incubated with 0.5 nM [^3H]-cytisine in a final volume of 500 µL binding saline for 4 h at 5 °C. […] Ten different concentrations of the experimental compound were usually tested in quadruplicate. Nonspecific binding was measured in the presence of 1 mM (S)-nicotine hydrogen tartrate (Sigma-Aldrich). Data were fitted using GraphPad Prism software (Version 4 GraphPad Software, San Diego, CA, USA) by nonlinear regression analyses to a sigmoidal one-site model with variable slope.

rat brain α7 nAChR = target: T2, rat brain α7 nAChR (Rattus norvegicus, UniProt Q05941); assay: [125I]-α-BTX displacement, rat brain membranes; type: binding
T2 construct: from tissue; host or cells: whole rat brain membranes

[1] = target: T3, Torpedo electric organ muscle type nAChR (Tetronarce californica, UniProt P02710+P02714+P02718); assay: [125I]-α-BTX displacement, Torpedo electric organ membranes; type: binding
T3 construct: from tissue; host or cells: Torpedo californica electric organ washed membranes

Lymnaea stagnalis AChBP = target: T4, Lymnaea stagnalis AChBP (Lymnaea stagnalis, UniProt P58154); assay: [3H]-epibatidine scintillation proximity binding assay, Ls AChBP; conditions: inhibition of [3H]-epibatidine binding; read-out: IC50 ± SEM, Ls BP
T4 construct: made in house
Method: (§1) The AChBP proteins were expressed and purified according to Hansen et al.. Determination of compound affinity for an AChBP utilized a modification of the Scintillation Proximity Assay reported previously. Briefly, the AChBP constructs (0.5–1.0 nM final concentration of binding sites) were combined with polyvinyltoluene anti-mouse SPA scintillation beads (0.17 mg/mL final concentration, Perkin Elmer), monoclonal anti-FLAG M2 antibody from mouse 1:8000 dilution (Sigma), and 0.1 M NaPO4 buffer, pH 7.0. This cocktail was distributed to a 96-well plate and incubated with either vehicle (total binding), unknown sample (10 µM final concentration), or a saturating concentration (10 µM) of the known competitive ligand methyllycaconitine to determine the nonspecific binding. The radioligand (±)-[^3H]-epibatidine (Perkin Elmer, 5 nM final concentration) was added to each well with varying the concentrations of competing ligand and allowed to incubate at room temperature for 1 hr. Plates were read on a 1450 MicroBeta TriLux liquid scintillation counter (Wallac) and the output normalized. All measurements were conducted in duplicate a minimum of 3 times. The IC50 values were calculated using GraphPad Prism version 4.02 (GraphPad Software, 2006, San Diego, CA, USA, www.graphpad.com).

[2] = target: T5, Aplysia californica AChBP (Aplysia californica, UniProt Q8WSF8); assay: [3H]-epibatidine scintillation proximity binding assay, Ac AChBP; conditions: for IC50: inhibition of [3H]-epibatidine binding, read-out: IC50 ± SEM, Ac BP
T5 construct: made in house
Method: as §1

[3] = target: T6, A. californica BP Y55W mutant (Aplysia californica, UniProt Q8WSF8, Y72W); assay: [3H]-epibatidine scintillation proximity binding assay, Ac AChBP Y55W mutant; conditions: inhibition of [3H]-epibatidine binding; read-out: IC50 ± SEM, Ac BP Y55W
T6 construct: made in house
Method: as §1

[4] = target: T7, L. stagnalis AChBP C187S mutant (Lymnaea stagnalis, UniProt P58154, C206S); assay: [3H]-epibatidine scintillation proximity binding assay, Ls AChBP C187S mutant; conditions: for IC50: inhibition of [3H]-epibatidine binding
T7 construct: made in house
Method: as §1

[5] = target: T8, human α4β2 nAChRs expressed in TsA201 cells (Homo sapiens, UniProt P17787+P43681); assay: FlexStation membrane potential functional assay; type: cell-based; conditions: for activation (membrane depolarization) of human α4β2 nAChRs: MeNTX up to 300 µM, relative to 5 µM ACh; for inhibition of ACh activation of human α4β2 nAChRs: response to 5 μM acetylcholine
T8 construct: expressed in transfected cells; host or cells: TsA201 cells
Method: TsA201 cells expressing human α4β2 were maintained in media consisting of Dulbecco’s Modified Eagle medium supplemented with 10% FBS, 100 units/mL penicillin and 100 μg/mL streptomycin, 2 mM L-glutamine, 0.5 mg/mL zeocin, and 0.6 mg/mL geneticin. Cells were grown in 75 cm^2 culture flasks, which were housed in a humidified incubator (Fisher Scientific, Atlanta, GA, USA at 37 °C in an atmosphere of 5% CO2. They were grown to around 80–90% confluence after harvesting with 0.25% trypsin and being split weekly at a subcultivation ratio of between 1:6 and 1:10.
Our experimental protocol was based on the initial study of Fitch et al.. Cells were seeded at a density of roughly 5 × 10^4 to 10^5 cells/well in 96-well flat-bottom black wall culture plates coated with 50 μg /mL poly-D-lysine hydrobromide (Sigma-Aldrich, 70–150 kDa) and grown overnight in 100 μL culture medium. A proprietary membrane potential dye obtained from Molecular Devices (San Diego, CA, USA) was prepared by dissolving one bottle of dye into 30 mL of Hanks Saline (pH = 7.4) containing 20 mM HEPES buffer. The cells were incubated with 100 μL of dye for 30 min at 37 °C prior to the robotically controlled concentration-response experiment. Serial dilutions of a compound for dose-response analysis were prepared in 96-well plates by evaporation of a methanolic stock solution and then reconstituted in the appropriate volume of Hanks saline. Fluid transfer and readings were performed by a FlexStation fluorimeter (Molecular Devices). Excitation and emission wavelengths were set to 530 nm and 565 nm with a cutoff of 550 nm. The first 17 s were used as a basal reading.

molluscan AChBPs = assay: Preincubation with toxin before [3H]-epibatidine addition, AChBPs; type: binding
Method: as §1

[6] = test system: phencyclidine binding site of Torpedo nAChR ion channel; assay: [3H]-TCP binding to Torpedo membranes; conditions: results not shown
Excerpt: We have not yet deciphered the mechanism by which this small molecule can be an nAChR antagonist. […] We did observe that NTX inhibited [^3H]-TCP (radiolabelled analog of phencyclidine) binding to the Torpedo membranes, but this only occurred at NTX concentrations that were ~10X higher than were required to inhibit α-BTX binding (results not shown). Since most competitive antagonists are relatively large rigid molecules, elucidating the molecular mechanism by which NTX, an extremely small molecule, acts as an nAChR antagonist merits further investigation.

[7] = design: method as in earlier work; conditions: cited from earlier work
[8] = rat brain membranes, [3H]-cytisine displacement, mean of n experiments, read-out: IC50 ± SEM, α4β2
[9] = rat brain membranes, [125I]-α-BTX displacement, mean of n experiments, read-out: IC50 ± SEM, α7
[10] = [125I]-α-BTX displacement, mean of n experiments, read-out: IC50 ± SEM, Torpedo electric organ
[11] = single [3H]-cytisine displacement experiment
[12] = single [3H]-cytisine displacement experiment, read-out: α4β2 IC50 (individual experiment, Figure 3)
[13] = single [125I]-αBTX displacement experiment
[14] = single [125I]-αBTX displacement experiment, read-out: α7 IC50 (representative experiment, Figure 6)
[15] = Torpedo IC50 (single experiment, Figure 7 left), 30 min preincubation before BTX

| SMILES | IC50 (rat brain α4β2 nAChRs; [8]) | IC50 (rat brain α7 nAChR; [9]) | IC50 [1, 10] | IC50 (Lymnaea stagnalis AChBP) | IC50 [2] | IC50 [3] | α4β2 Hillslope (individual experiment, Figure 3) (rat brain α4β2 nAChRs; [11]) | IC50 (rat brain α4β2 nAChRs; [12]) | α7 Hillslope (representative experiment, Figure 6) (rat brain α7 nAChR; [13]) | IC50 (rat brain α7 nAChR; [14]) | IC50 [1, 15] | affinity of Aplysia californica AChBP less than for NTX ([2]; MeNTX versus NTX) | affinity of Ls C187S mutant greater than for NTX ([4]; MeNTX versus NTX) | IC50 [4] | activation (membrane depolarization) of human α4β2 nAChRs [5] | inhibition of ACh activation of human α4β2 nAChRs [5] | effect of 24 hr preincubation on inhibition of [3H]-epibatidine binding (molluscan AChBPs) | NTX concentrations inhibiting [3H]-TCP binding, higher than required to inhibit α-BTX binding [6] | dimethylamino pKa [7] |
| --- | --- | --- | --- | --- | --- | --- | --- | --- | --- | --- | --- | --- | --- | --- | --- | --- | --- | --- | --- |
| CN(C)C1CSCSC1 [DMA-DT, 5-dimethylamino-1,3-dithiane] | 160 ± 96 µM | 640 ± 220 µM | > 500 µM | 22 ± 2.4 µM | 28 ± 0.27 µM | 41.4 ± 4.4 µM |  |  |  |  |  |  |  |  |  |  |  |  |  |
| C[N+](C)(C)C1CSSC1 [MeNTX, N-methylnereistoxin] | 120 ± 13 µM | 45 ± 2.3 µM | 9.3 ± 4.9 µM | 163 ± 8.7 µM | 260 ± 71 µM | 74 ± 5.2 µM | -1.5 | 121 µM | -1.0 | 89.4 µM | 11.2 µM | ~ 3.5 fold | ~ 4 fold | 41 µM | failed to activate | inhibited ACh activation | failed to detect any effect |  |  |
| CN(C)C1CSSC1 [NTX, 4-dimethylamino-1,2-dithiolane, reference compound] | 60 ± 22 µM | 390 ± 8.6 µM | 230 ± 71 µM | 140 ± 24 µM | 71 ± 1.9 µM | 110 ± 25 µM | -1.5 | 81.6 µM | -2.6 | 826 µM | 254 µM |  |  | 160 µM | no measurable depolarizing activity | inhibited ACh activation | failed to detect any effect | ~ 10 X | 7.2 |
| C[N+](C)(C)C1CSCSC1 [TMA-DT, 5-trimethylamino-1,3-dithiane] | 290 ± 60 µM | 90 ± 4.3 µM | 150 µM | 3.7 ± 0.39 µM | 20 ± 2 µM | 18 ± 2.8 µM |  |  |  |  |  |  |  |  |  |  |  |  |  |
